Experimental data taken from patent publication US8497276B2, “Substituted indolo-piperidine compounds” (ArQule, Inc., priority 2009, dated 2013).

What was measured:
[1] = test system: NCI-H1299; assay: MTS Assay (cell growth inhibition), NCI-H1299; assay type: cell-based; conditions: NCI-H1299 cells, 72 hours with test compound; concentration not given
Experimental: (§1) Cells were maintained at 37° C., 5% CO2 in DMEM media supplemented with 1% fetal bovine serum, penicillin/streptomycin and fungizone (Invitrogen). Cells were seeded into 96-well tissue culture plates at 3000 per well and cultured at 37° C. for 18 hours. Test compounds were dissolved and diluted to 300× in DMSO then diluted 1:40 in DMEM. Cells were incubated with test compounds for 72 hours followed by incubation with tetrazolium compound (3-(4,5-dimethylthiazol-2-yl)-5-(3-carboxymethoxyphenyl)-2-(4-sulfophenyl)-2H-tetrazolium, inner salt; MTS) and the electron coupling reagent, phenazine methosulfate (PMS) for 4 hours. […] The ability of compounds to inhibit cell growth in this assay is correlated with the reduction of dehydrogenase enzyme activity found in metabolically active cells. The measurement of the absorbance of the formazan was assessed using an ENVISION™ (Perkin Elmer) microplate reader at 492 nm. The calculated IC50 value is the concentration of the test compound that causes a 50% decrease in the absorbance.

[2] = test system: DLD-1; assay: MTS Assay (cell growth inhibition), DLD-1; assay type: cell-based; conditions: DLD-1 cells, 72 hours with test compound; concentration not given
Experimental: as §1

[3] = test system: Kato III; assay: MTS Assay (cell growth inhibition), Kato III; assay type: cell-based; conditions: Kato III cells, 72 hours with test compound; concentration not given
Experimental: as §1

[4] = test system: MDA-MB 231; assay: MTS Assay (cell growth inhibition), MDA-MB 231; assay type: cell-based; conditions: MDA-MB 231 cells, 72 hours with test compound; concentration not given
Experimental: as §1

[5] = test system: PACA-2; assay: MTS Assay (cell growth inhibition), PACA-2; assay type: cell-based; conditions: PACA-2 cells, 72 hours with test compound; concentration not given
Experimental: as §1

[6] = test system: PC-3; assay: MTS Assay (cell growth inhibition), PC-3; assay type: cell-based; conditions: PC-3 cells, 72 hours with test compound; concentration not given
Experimental: as §1

[7] = biological target: T1, Tec kinase (Homo sapiens, UniProt P42680); assay: Tec Kinase Activity Assay; assay type: biochemical; conditions: 75 μM ATP, Pyk-2 substrate; compound concentration not given
T1 sequence (P42680 1-631): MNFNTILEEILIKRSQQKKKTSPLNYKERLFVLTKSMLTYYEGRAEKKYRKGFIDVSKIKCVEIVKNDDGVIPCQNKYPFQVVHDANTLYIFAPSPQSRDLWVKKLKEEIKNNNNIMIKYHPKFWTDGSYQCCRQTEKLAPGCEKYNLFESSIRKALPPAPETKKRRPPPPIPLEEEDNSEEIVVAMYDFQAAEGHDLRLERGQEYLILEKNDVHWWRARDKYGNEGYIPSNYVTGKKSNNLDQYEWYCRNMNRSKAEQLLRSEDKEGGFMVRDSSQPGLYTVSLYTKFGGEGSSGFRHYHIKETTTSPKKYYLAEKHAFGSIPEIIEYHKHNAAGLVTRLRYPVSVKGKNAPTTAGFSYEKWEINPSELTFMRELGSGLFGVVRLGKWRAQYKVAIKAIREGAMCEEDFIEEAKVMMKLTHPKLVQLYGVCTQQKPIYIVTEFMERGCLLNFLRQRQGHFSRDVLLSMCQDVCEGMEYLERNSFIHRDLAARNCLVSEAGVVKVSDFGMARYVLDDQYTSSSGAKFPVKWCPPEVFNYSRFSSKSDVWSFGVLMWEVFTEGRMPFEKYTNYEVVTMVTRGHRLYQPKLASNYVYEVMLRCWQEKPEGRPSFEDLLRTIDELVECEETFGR
Experimental: The disclosed compounds were assayed for their ability to inhibit the activity of Tec kinase. Nunc Maxisorb plates were coated with streptavidin by overnight incubation with 100 μl per well of 1 μg/ml Streptavidin in DPBS. Prior to the start of the experiment, the plates were washed with TBST (3×200 μl) and blocked for at least 1 hour by adding 150 μl of 5% BSA/TBST. The plates were then washed with TBST (3×200 μl/well) and left dry immediately before the capture step.
The disclosed test compounds and controls (Staurosporine and Sutent) were prepared using the following assay buffer (50 mM Tris-HCl, 0.02 mg/ml BSA, 10 mM MgCl2, 0.1 mM Na3VO4, 1 mM EGTA, 75 μM ATP, 0.01% NP-40, 2 mM DTT in 10% glycerol/water) at 3× desired final concentration. 20 μl of the test compounds (or control) and 20 μl TEC (0.25 ng/μl) were rapidly added to a reaction plate. The plate was incubated for 30 minutes. 20 μl of Pyk-2 (0.5 ng/μl) was then added to the reaction plate. The plate was incubated at room temperature for two hours.
50 μl was transferred from the reaction plate to the streptavidin coated plate. The capture plate was incubated at room temperature for 30 minutes then washed with TBST 6 times. 100 μl/well of Cell Signaling anti-phospho tyrosine was added to the capture plate at a dilution of 1:3000 in 2% BSA/TBST. The plate was incubated for one hour at room temperature then washed with TBST 6 times. 100 μl/well of alkaline phosphatase tagged goat anti-mouse antibody was added to the capture plate at a dilution of 1:4000 in 2% BSA/TBST. The plate was incubated for one hour at room temperature then washed with TBST 6 times.
The fluorescent readout was initiated by the addition of 100 μl/well of Attophos reagent (6 mg/10 ml) and the reading was done on the Perkin Elmer Envision system.

Row | Biochemical IC50 (% inhibition) Tec [7] | SMILES | MTS cell kill data (% inhibition) NCI-H1299 [1] | MTS cell kill data (% inhibition) DLD-1 [2] | MTS cell kill data (% inhibition) Kato III [3] | MTS cell kill data (% inhibition) MDA-MB 231 [4] | MTS cell kill data (% inhibition) PACA-2 [5] | MTS cell kill data (% inhibition) PC-3 [6]
1 |  | Brc1n[nH]c2ncnc(N3CCc4c([nH]c5ccccc45)C3)c12 [Compound 1, 2-(3-bromo-1H-pyrazolo[3,4-d]pyrimidin-4-yl)-2,3,4,9-tetrahydro-1H-beta-carboline] | B (B = 50-79% inhibition) | B (B = 50-79% inhibition) | A (A = 80-100% inhibition) | C (C = <50% inhibition) | B (B = 50-79% inhibition) | C (C = <50% inhibition)
2 | C (C = <50% inhibition) | Fc1c(Cl)cccc1C1c2[nH]c3ccccc3c2CCN1c1ncnc2[nH]ccc12 (stereo not drawn) [Compound 2, 1-(3-chloro-2-fluorophenyl)-2-(7H-pyrrolo[2,3-d]pyrimidin-4-yl)-2,3,4,9-tetrahydro-1H-beta-carboline] | A (A = 80-100% inhibition) | A (A = 80-100% inhibition) | A (A = 80-100% inhibition) | A (A = 80-100% inhibition) | A (A = 80-100% inhibition) | A (A = 80-100% inhibition)
3 | C (C = <50% inhibition) | Fc1c(Cl)cccc1C1c2[nH]c3ccccc3c2CCN1c1ncnc2[nH]cnc12 (stereo not drawn) [Compound 3, 1-(3-chloro-2-fluorophenyl)-2-(9H-purin-6-yl)-2,3,4,9-tetrahydro-1H-beta-carboline] | B (B = 50-79% inhibition) | B (B = 50-79% inhibition) | B (B = 50-79% inhibition) | C (C = <50% inhibition) | C (C = <50% inhibition) | C (C = <50% inhibition)
4 | B (B = 50-79% inhibition) | Fc1ccc(C2c3[nH]c4ccccc4c3CCN2c2ncnc3[nH]ccc23)cc1 (stereo not drawn) [Compound 4, 1-(4-fluorophenyl)-2-(7H-pyrrolo[2,3-d]pyrimidin-4-yl)-2,3,4,9-tetrahydro-1H-beta-carboline] | B (B = 50-79% inhibition) | B (B = 50-79% inhibition) | B (B = 50-79% inhibition) | C (C = <50% inhibition) | B (B = 50-79% inhibition) | C (C = <50% inhibition)
5 | C (C = <50% inhibition) | Fc1ccc(C2c3[nH]c4ccccc4c3CCN2c2ncnc3[nH]cnc23)cc1 (stereo not drawn) [Compound 5, 1-(4-fluorophenyl)-2-(9H-purin-6-yl)-2,3,4,9-tetrahydro-1H-beta-carboline] | B (B = 50-79% inhibition) | C (C = <50% inhibition) | A (A = 80-100% inhibition) | A (A = 80-100% inhibition) | C (C = <50% inhibition) | A (A = 80-100% inhibition)
6 | B (B = 50-79% inhibition) | Fc1ccc(C2c3[nH]c4ccccc4c3CCN2c2ncnc3[nH]ncc23)cc1 (stereo not drawn) [Compound 6, 1-(4-fluorophenyl)-2-(1H-pyrazolo[3,4-d]pyrimidin-4-yl)-2,3,4,9-tetrahydro-1H-beta-carboline] | B (B = 50-79% inhibition) | B (B = 50-79% inhibition) | A (A = 80-100% inhibition) | A (A = 80-100% inhibition) | B (B = 50-79% inhibition) | C (C = <50% inhibition)
7 | C (C = <50% inhibition) | Nc1nc(N2CCc3c([nH]c4ccccc34)C2c2cccc(C(F)(F)F)c2)c2cn[nH]c2n1 (stereo not drawn) [Compound 7, 4-{1-[3-(trifluoromethyl)phenyl]-1,3,4,9-tetrahydro-2H-beta-carbolin-2-yl}-1H-pyrazolo[3,4-d]pyrimidin-6-amine] | C (C = <50% inhibition) | C (C = <50% inhibition) | C (C = <50% inhibition) | B (B = 50-79% inhibition) | C (C = <50% inhibition) | A (A = 80-100% inhibition)
8 | C (C = <50% inhibition) | FC(F)(F)c1cccc(C2c3[nH]c4ccccc4c3CCN2c2ncnc3[nH]cnc23)c1 (stereo not drawn) [Compound 8, 2-(9H-purin-6-yl)-1-[3-(trifluoromethyl)phenyl]-2,3,4,9-tetrahydro-1H-beta-carboline] | A (A = 80-100% inhibition) | A (A = 80-100% inhibition) | A (A = 80-100% inhibition) | A (A = 80-100% inhibition) | B (B = 50-79% inhibition) | A (A = 80-100% inhibition)
9 | B (B = 50-79% inhibition) | FC(F)(F)c1cccc(C2c3[nH]c4ccccc4c3CCN2c2ncnc3[nH]ncc23)c1 (stereo not drawn) [Compound 9, 2-(1H-pyrazolo[3,4-d]pyrimidin-4-yl)-1-[3-(trifluoromethyl)phenyl]-2,3,4,9-tetrahydro-1H-beta-carboline] | B (B = 50-79% inhibition) | B (B = 50-79% inhibition) | B (B = 50-79% inhibition) | B (B = 50-79% inhibition) | B (B = 50-79% inhibition) | C (C = <50% inhibition)
10 | C (C = <50% inhibition) | Cc1cccc(C2c3[nH]c4ccccc4c3CCN2c2ncnc3[nH]ccc23)c1 (stereo not drawn) [Compound 10, 1-(3-methylphenyl)-2-(7H-pyrrolo[2,3-d]pyrimidin-4-yl)-2,3,4,9-tetrahydro-1H-beta-carboline] | B (B = 50-79% inhibition) | B (B = 50-79% inhibition) | B (B = 50-79% inhibition) | C (C = <50% inhibition) | B (B = 50-79% inhibition) | C (C = <50% inhibition)
